Results taken from ChEMBL document CHEMBL4507259 (2021).

Legend:
[1] = system: NCI-H128; assay: H128 cell line Proliferation assay; type: functional, Homo sapiens; conditions: Compound concentration 10 uM; time 4 day
[2] = system: Farage; assay: Farage cell line Proliferation assay; type: functional, Homo sapiens; conditions: Compound concentration 10 uM; time 3 day
[3] = system: DB; assay: DB cell line Proliferation assay; type: functional, Homo sapiens; conditions: Compound concentration 10 uM; time 3 day
[4] = system: VCaP; assay: VCaP cell line Proliferation assay; type: functional, Homo sapiens; conditions: Compound concentration 10 uM; time 5 day
[5] = system: WSU-NHL; assay: WSU-NHL cell line Proliferation assay; type: functional, Homo sapiens; conditions: Compound concentration 10 uM; time 3 day
[6] = system: NCI-H441; assay: H441 cell line Proliferation assay; type: functional, Homo sapiens; conditions: Compound concentration 10 uM; time 3 day
[7] = system: K562; assay: K562 cell line Proliferation assay; type: functional, Homo sapiens; conditions: Compound concentration 10 uM; time 3 day
[8] = system: Ramos; assay: Ramos cell line Proliferation assay; type: functional, Homo sapiens; conditions: Compound concentration 10 uM; time 3 day
[9] = system: Pfeiffer; assay: Pfeiffer cell line Proliferation assay; type: functional, Homo sapiens; conditions: Compound concentration 10 uM; time 3 day
[10] = system: Hs 695T; assay: Hs695T cell line Proliferation assay; type: functional, Homo sapiens; conditions: Compound concentration 10 uM; time 5 day
[11] = system: NCI-H2444; assay: H2444 cell line Proliferation assay; type: functional, Homo sapiens; conditions: Compound concentration 10 uM; time 3 day
[12] = biological target: Histone acetyltransferase type B catalytic subunit (Homo sapiens) (UniProt O14929); assay: HAT1 (HAT) CEREP ligand profiling; conditions: Compound concentration 10.0 uM
Sequence of Histone acetyltransferase type B catalytic subunit (Homo sapiens) (O14929 2-419 limits assumed): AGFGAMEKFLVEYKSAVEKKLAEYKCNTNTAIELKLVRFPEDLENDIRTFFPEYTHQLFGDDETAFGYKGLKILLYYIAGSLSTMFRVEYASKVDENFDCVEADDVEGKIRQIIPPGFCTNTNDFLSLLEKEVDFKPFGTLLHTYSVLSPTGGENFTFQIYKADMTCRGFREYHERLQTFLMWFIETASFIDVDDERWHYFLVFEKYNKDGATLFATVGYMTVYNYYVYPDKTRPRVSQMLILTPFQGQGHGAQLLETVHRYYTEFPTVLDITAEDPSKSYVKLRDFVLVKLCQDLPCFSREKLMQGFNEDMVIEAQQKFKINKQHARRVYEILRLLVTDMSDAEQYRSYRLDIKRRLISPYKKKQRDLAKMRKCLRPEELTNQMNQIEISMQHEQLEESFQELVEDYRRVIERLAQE

[13] = system: CHL-1; assay: CHL1 cell line Proliferation assay; type: functional, Homo sapiens; conditions: Compound concentration 10 uM; time 5 day
[14] = system: SU-DHL-16; assay: SuDHL16 cell line Proliferation assay; type: functional, Homo sapiens; conditions: Compound concentration 10 uM; time 3 day
[15] = system: NCI-H596; assay: H596 cell line Proliferation assay; type: functional, Homo sapiens; conditions: Compound concentration 10 uM; time 3 day
[16] = system: NCI-H211; assay: H211 cell line Proliferation assay; type: functional, Homo sapiens; conditions: Compound concentration 10 uM; time 4 day
[17] = biological target: Sodium-dependent serotonin transporter (Homo sapiens, UniProt P31645); assay: GPCRScan assay: inhibition of SERT; design: radioligand conc. used [nm] 1.5 – 2.0, parental cells stable HEK
Sequence of Sodium-dependent serotonin transporter (P31645 whole entry): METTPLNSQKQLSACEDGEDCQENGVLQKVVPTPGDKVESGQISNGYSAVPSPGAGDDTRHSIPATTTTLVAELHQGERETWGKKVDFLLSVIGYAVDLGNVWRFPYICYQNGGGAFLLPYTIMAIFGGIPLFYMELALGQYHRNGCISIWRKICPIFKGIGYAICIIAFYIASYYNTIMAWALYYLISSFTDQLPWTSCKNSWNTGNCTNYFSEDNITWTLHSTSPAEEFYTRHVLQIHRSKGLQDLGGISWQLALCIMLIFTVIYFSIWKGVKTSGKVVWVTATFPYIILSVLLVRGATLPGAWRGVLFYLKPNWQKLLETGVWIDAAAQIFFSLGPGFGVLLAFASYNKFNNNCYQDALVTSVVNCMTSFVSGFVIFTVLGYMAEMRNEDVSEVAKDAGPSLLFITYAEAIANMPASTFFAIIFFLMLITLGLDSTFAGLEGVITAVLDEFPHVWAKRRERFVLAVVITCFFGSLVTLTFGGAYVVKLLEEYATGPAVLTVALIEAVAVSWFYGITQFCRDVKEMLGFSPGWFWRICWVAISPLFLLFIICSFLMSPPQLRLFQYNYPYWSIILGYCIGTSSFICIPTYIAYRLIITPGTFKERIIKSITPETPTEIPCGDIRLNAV

[18] = biological target: 5-hydroxytryptamine receptor 2B (Homo sapiens, UniProt P41595); assay: GPCRScan assay: inhibition of 5-HT2B; design: radioligand conc. used [nm] 1.0 – 2.0, parental cells stable HEK
Sequence of 5-hydroxytryptamine receptor 2B (P41595 whole entry): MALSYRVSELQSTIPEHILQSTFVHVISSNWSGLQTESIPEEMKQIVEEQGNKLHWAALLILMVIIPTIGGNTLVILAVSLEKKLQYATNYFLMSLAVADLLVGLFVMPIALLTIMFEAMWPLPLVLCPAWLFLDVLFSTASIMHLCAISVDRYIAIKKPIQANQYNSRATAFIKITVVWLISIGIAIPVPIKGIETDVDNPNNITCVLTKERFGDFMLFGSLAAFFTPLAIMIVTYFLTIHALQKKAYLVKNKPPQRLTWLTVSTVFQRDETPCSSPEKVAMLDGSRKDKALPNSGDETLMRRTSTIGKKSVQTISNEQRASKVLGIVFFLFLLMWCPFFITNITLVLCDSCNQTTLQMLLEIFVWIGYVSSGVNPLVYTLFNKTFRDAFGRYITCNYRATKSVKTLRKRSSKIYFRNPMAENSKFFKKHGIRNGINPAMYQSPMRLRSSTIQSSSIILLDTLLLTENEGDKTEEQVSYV

[19] = system: COR-L47; assay: Cor-L47 cell line Proliferation assay; type: functional, Homo sapiens; conditions: Compound concentration 10 uM; time 4 day
[20] = system: EMT6; assay: EMT6 (mouse) cell line Proliferation assay; type: functional; conditions: Compound concentration 10 uM; time 5 day
[21] = system: SUD4; assay: SuDHL4 cell line Proliferation assay; type: functional, Homo sapiens; conditions: Compound concentration 10 uM; time 3 day
[22] = system: 4T1; assay: 4T1 (mouse) cell line Proliferation assay; type: functional; conditions: Compound concentration 10 uM; time 5 day
[23] = system: RL; assay: RL cell line Proliferation assay; type: functional, Homo sapiens; conditions: Compound concentration 10 uM; time 3 day
[24] = system: NU-DUL-1; assay: NuDUL1 cell line Proliferation assay; type: functional, Homo sapiens; conditions: Compound concentration 10 uM; time 3 day
[25] = biological target: Histone acetyltransferase KAT6A (Homo sapiens) (UniProt Q92794); assay: MYST3 (HAT) CEREP ligand profiling; conditions: Compound concentration 10.0 uM
Sequence of Histone acetyltransferase KAT6A (Homo sapiens) (Q92794 whole entry, looked up): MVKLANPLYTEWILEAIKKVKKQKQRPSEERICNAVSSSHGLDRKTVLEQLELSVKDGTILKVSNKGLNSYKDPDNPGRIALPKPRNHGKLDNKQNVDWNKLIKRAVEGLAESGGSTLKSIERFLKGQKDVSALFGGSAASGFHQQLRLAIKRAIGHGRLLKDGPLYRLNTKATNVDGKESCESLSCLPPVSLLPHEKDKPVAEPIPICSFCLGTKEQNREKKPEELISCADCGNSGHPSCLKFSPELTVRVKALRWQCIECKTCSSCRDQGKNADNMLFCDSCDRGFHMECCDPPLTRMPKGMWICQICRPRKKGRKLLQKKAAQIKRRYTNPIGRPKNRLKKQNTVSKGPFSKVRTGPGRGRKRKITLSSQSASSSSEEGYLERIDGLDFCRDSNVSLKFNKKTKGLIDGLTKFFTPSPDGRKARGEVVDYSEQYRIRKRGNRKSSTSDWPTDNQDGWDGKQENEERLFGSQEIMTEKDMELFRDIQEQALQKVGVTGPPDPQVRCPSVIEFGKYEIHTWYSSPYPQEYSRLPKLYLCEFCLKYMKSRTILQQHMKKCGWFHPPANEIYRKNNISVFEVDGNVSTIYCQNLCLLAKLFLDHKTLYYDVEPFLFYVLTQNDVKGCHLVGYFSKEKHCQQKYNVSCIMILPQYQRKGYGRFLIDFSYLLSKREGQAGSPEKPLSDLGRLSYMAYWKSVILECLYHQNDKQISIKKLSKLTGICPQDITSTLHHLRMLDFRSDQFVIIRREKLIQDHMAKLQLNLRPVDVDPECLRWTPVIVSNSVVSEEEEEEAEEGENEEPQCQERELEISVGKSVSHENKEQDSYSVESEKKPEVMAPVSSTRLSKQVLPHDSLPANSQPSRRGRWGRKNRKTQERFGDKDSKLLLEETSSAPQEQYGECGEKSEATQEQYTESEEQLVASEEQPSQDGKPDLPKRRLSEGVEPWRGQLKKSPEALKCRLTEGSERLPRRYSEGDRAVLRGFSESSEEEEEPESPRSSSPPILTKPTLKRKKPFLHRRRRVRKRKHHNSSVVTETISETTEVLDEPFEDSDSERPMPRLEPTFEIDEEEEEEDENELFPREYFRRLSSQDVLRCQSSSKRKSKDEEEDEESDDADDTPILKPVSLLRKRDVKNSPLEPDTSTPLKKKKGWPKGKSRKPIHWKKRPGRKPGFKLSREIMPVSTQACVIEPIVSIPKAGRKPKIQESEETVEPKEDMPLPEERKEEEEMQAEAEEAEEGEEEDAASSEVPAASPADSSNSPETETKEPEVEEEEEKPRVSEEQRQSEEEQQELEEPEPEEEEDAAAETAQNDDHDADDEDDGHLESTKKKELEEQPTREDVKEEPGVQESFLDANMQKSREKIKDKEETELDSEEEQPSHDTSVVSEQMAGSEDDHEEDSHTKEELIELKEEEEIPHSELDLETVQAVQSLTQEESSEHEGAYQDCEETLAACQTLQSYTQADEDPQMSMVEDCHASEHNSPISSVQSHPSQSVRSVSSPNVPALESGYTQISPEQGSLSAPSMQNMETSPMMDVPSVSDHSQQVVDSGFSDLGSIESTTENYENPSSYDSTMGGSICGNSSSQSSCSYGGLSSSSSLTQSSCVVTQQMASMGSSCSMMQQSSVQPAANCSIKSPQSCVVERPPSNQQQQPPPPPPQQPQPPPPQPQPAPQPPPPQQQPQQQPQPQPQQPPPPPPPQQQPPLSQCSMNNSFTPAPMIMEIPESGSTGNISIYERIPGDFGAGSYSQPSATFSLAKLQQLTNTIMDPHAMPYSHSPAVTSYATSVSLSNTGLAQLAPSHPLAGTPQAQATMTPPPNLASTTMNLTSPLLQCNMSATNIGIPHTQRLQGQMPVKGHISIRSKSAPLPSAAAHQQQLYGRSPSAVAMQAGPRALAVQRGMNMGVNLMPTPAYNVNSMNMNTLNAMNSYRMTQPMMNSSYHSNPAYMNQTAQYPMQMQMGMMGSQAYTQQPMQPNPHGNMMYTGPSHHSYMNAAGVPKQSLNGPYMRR

[26] = system: WM 266-4; assay: WM2664 cell line Proliferation assay; type: functional, Homo sapiens; conditions: Compound concentration 10 uM; time 5 day
[27] = system: Daudi; assay: Daudi cell line Proliferation assay; type: functional, Homo sapiens; conditions: Compound concentration 10 uM; time 3 day
[28] = system: MDA-MB-453; assay: MDA_MB_453 cell line Proliferation assay; type: functional, Homo sapiens; conditions: Compound concentration 10 uM; time 5 day
[29] = system: NCI-H1930; assay: H1930 cell line Proliferation assay; type: functional, Homo sapiens; conditions: Compound concentration 10 uM; time 4 day
[30] = system: CAL-120; assay: CAL_120 cell line Proliferation assay; type: functional, Homo sapiens; conditions: Compound concentration 10 uM; time 5 day
[31] = system: SET-2; assay: SET-2 cell line Proliferation assay; type: functional, Homo sapiens; conditions: Compound concentration 10 uM; time 3 day
[32] = system: MDA-MB-157; assay: MDA_MB_157 cell line Proliferation assay; type: functional, Homo sapiens; conditions: Compound concentration 10 uM; time 5 day
[33] = system: HCC4006; assay: HCC4006 cell line Proliferation assay; type: functional, Homo sapiens; conditions: Compound concentration 10 uM; time 3 day
[34] = system: OCI-Ly3; assay: OCI Ly3 cell line Proliferation assay; type: functional, Homo sapiens; conditions: Compound concentration 10 uM; time 3 day
[35] = system: Granta-519; assay: Granta 519 cell line Proliferation assay; type: functional, Homo sapiens; conditions: Compound concentration 10 uM; time 3 day
[36] = biological target: Sodium-dependent noradrenaline transporter (Homo sapiens) (UniProt P23975); conditions: Compound concentration 10.0 uM
Sequence of Sodium-dependent noradrenaline transporter (Homo sapiens) (P23975 whole entry): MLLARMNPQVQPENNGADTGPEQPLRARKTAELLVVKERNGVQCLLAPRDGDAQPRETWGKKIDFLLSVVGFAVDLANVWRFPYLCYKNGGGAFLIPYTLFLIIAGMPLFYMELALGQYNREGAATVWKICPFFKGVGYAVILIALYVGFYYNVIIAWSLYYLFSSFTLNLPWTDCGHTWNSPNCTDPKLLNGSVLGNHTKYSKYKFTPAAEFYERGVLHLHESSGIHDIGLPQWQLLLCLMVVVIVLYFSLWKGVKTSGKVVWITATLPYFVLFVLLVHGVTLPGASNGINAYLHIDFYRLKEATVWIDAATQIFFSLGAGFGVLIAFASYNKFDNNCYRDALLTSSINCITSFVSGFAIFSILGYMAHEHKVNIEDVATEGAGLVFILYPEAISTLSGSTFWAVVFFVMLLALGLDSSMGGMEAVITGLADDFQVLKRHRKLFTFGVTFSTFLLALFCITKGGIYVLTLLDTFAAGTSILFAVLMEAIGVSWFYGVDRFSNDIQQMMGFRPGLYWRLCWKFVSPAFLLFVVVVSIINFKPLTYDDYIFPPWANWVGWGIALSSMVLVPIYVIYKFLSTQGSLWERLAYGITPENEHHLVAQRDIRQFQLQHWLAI

[37] = system: HT; assay: HT cell line Proliferation assay; type: functional, Homo sapiens; conditions: Compound concentration 10 uM; time 3 day
[38] = system: NCI-H187; assay: H187 cell line Proliferation assay; type: functional, Homo sapiens; conditions: Compound concentration 10 uM; time 4 day
[39] = system: CA46; assay: CA46 cell line Proliferation assay; type: functional, Homo sapiens; conditions: Compound concentration 10 uM; time 3 day
[40] = system: NCI-H1693; assay: H1693 cell line Proliferation assay; type: functional, Homo sapiens; conditions: Compound concentration 10 uM; time 3 day
[41] = system: Mino; assay: Mino cell line Proliferation assay; type: functional, Homo sapiens; conditions: Compound concentration 10 uM; time 3 day
[42] = biological target: D(3) dopamine receptor (Homo sapiens, UniProt P35462); assay: GPCRScan assay: inhibition of D3; design: radioligand conc. used [nm] 0.5 – 1.8, parental cells HEKT
Sequence of D(3) dopamine receptor (P35462 whole entry): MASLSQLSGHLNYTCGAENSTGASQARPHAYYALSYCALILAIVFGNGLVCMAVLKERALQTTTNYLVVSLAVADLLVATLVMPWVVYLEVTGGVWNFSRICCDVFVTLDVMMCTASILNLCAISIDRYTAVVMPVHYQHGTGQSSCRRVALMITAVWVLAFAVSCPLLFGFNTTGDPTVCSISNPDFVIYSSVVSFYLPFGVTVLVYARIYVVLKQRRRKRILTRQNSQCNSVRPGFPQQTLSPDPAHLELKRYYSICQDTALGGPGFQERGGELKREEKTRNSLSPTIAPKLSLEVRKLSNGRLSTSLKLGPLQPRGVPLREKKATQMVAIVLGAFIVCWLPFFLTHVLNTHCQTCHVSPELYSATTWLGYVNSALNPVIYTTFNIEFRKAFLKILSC

[43] = biological target: Mu-type opioid receptor (Homo sapiens) (UniProt P35372); conditions: Compound concentration 10.0 uM
Sequence of Mu-type opioid receptor (Homo sapiens) (P35372 whole entry): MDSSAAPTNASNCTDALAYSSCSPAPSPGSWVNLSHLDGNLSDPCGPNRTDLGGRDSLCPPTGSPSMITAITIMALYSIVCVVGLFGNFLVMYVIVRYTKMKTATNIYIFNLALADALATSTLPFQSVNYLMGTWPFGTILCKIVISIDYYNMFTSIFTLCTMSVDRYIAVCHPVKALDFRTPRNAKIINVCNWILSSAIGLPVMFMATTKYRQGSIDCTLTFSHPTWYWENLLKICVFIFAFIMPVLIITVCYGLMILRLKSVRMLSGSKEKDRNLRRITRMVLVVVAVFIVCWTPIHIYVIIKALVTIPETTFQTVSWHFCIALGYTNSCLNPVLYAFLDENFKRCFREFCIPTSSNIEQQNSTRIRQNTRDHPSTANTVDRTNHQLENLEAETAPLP

[44] = biological target: cGMP-inhibited 3',5'-cyclic phosphodiesterase 3A (Homo sapiens) (UniProt Q14432); assay: PDE3A (h) CEREP ligand profiling; conditions: Compound concentration 10.0 uM
[45] = biological target: CREB-binding protein/Histone acetyltransferase p300 (Homo sapiens, UniProt Q09472+Q92793); assay: Inhibition of H3K27Ac (LnCaP-FGC); type: cell-based; conditions: lncap-clone-fgc
[46] = biological target: Receptor-type tyrosine-protein kinase FLT3 (Homo sapiens) (UniProt P36888); conditions: Compound concentration 1000.0 nM
[47] = biological target: Tyrosine-protein kinase JAK1 (Homo sapiens) (UniProt P23458); conditions: Compound concentration 1000.0 nM

CNC(=O)Nc1ccc2c(c1)CC[C@@]21OC(=O)N(CC(=O)N(Cc2ccc(F)cc2)[C@@H](C)C(F)(F)F)C1=O [A-485]
Cell Proliferation EC50 [1]: >10000 nM | Cell Proliferation EC50 [2]: >10000 nM | Cell Proliferation EC50 [3]: 772.7 nM | Cell Proliferation EC50 [4]: 40 nM | Cell Proliferation EC50 [5]: 1063 nM | Cell Proliferation EC50 [6]: >10000 nM | Cell Proliferation EC50 [7]: 1270 nM | Cell Proliferation EC50 [8]: 934 nM | Cell Proliferation EC50 [9]: 858.6 nM | Cell Proliferation EC50 [10]: 3571 nM | Cell Proliferation EC50 [11]: 5918 nM | inhibition [12]: -1.9% | Cell Proliferation EC50 [13]: 366 nM | Cell Proliferation EC50 [14]: 730.4 nM | Cell Proliferation EC50 [15]: >10000 nM | Cell Proliferation EC50 [16]: 1500 nM | Ki ([17]; read-out: Ki): 223 nM | Ki ([17]; read-out: pKi (converted)): 219 nM | Ki ([18]; read-out: Ki): 1290 nM | Ki ([18]; read-out: pKi (converted)): 1200 nM | Cell Proliferation EC50 [19]: >10000 nM | Cell Proliferation EC50 [20]: 498.9 nM | Cell Proliferation EC50 [21]: 720.4 nM | Cell Proliferation EC50 [22]: >10000 nM | Cell Proliferation EC50 [23]: 1047 nM | Cell Proliferation EC50 [24]: 478.1 nM | inhibition [25]: 5.6% | Cell Proliferation EC50 [26]: 1914 nM | Cell Proliferation EC50 [27]: 434.6 nM | Cell Proliferation EC50 [28]: 1866.4 nM | Cell Proliferation EC50 [29]: >10000 nM | Cell Proliferation EC50 [30]: >10000 nM | Cell Proliferation EC50 [31]: 2010 nM | Cell Proliferation EC50 [32]: 4592 nM | Cell Proliferation EC50 [33]: 4640 nM | Cell Proliferation EC50 [34]: 489.2 nM | Cell Proliferation EC50 [35]: 3280 nM | inhibition [36]: -3.76% | Cell Proliferation EC50 [37]: >10000 nM | Cell Proliferation EC50 [38]: >10000 nM | Cell Proliferation EC50 [39]: 480.9 nM | Cell Proliferation EC50 [40]: 2367 nM | Cell Proliferation EC50 [41]: 532.2 nM

CNC(=O)Nc1ccc2c(c1)[C@@]1(CC2)OC(=O)N(CC(=O)N(Cc2ccc(F)cc2)[C@@H](C)C(F)(F)F)C1=O [A-486]
Ki ([42]; read-out: Ki): 1140 nM | Ki ([42]; read-out: pKi (converted)): 1100 nM | inhibition [43]: -5.11% | inhibition [44]: -1% | IC50 [45]: > 10000 nM | residual activity [46]: 92% | residual activity [47]: 93%
